# Data taken from patent publication US20230129485A1, “SYSTEM AND METHOD FOR DETERMINING MATERIAL PROPERTIES OF MOLECULAR SYSTEMS FROM AN AB-INITIO PARAMETERIZED FORCE-FIELD” (InterX, Inc., priority 2021, published 2023).
# Tests used:
# [1] = Free energy of hydration predicted with the QM-parameterized force field model (ARROW FF), classical MD and PIMD simulation in a water box
# In short: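 Classical and PIMD runs (MTS integrator, MTTK barostat at 1 atm) followed minimization and 50 ps equilibration, with 1 ns NPT production per window. Fifteen unequally spaced lambda windows removed all solute-solvent interactions simultaneously in a 32 Å water box. Hydration free energy computed by Bennett acceptance ratio and thermodynamic integration.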
# [2] = CHEX/H2O partition coefficient (log D) predicted with the QM-parameterized force field model (ARROW FF)
# In short: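 Cyclohexane/water partition coefficients were predicted by molecular simulation with a QM-parameterized force field, with bonded force constants and equilibrium values fitted to MP2/aug-cc-pVTZ energies. Solutes carried neutral functional groups, and results from four independent groups were averaged.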
# [3] = Bulk solvent properties (density, heat of vaporization, self-solvation) predicted with the QM-parameterized force field model (AFF MD / PIMD); conditions: density, heat of vaporization, self-solvation; PIMD8
# Source text: Particle-Mesh Ewald (PME) algorithm was used to compute the electrostatic interactions. A 32×32×32 grid mesh and 5th power spline interpolation order can be used to compute the inverse PME sum. 9 Å cutoffs were used to compute the direct PME sum as well as the exchange and dispersion interactions. Bulk corrections were applied to account for distance cut-off of dispersion interactions. Solvation free energies were computed by decoupling the interactions between the solute and the solvent molecules. Electrostatic, exchange-repulsion and dispersion interactions were switched off simultaneously using a lambda-dependent scaling (a scaling factor power=2 was used) and a soft-coring algorithm (maximal soft-coring radius=1.5 Å, soft-coring radius scaling factor power=1). 15 lambda points unequally spaced (X=0, 0.05, 0.1, 0.2, 0.3, 0.4, 0.5, 0.6, 0.7, 0.75, 0.8, 0.85, 0.9, 0.95, 1.0) were used to decouple the solute-solvent intermolecular interactions.
# In some simulations of the QM-parameterized force field molecular simulation process, energy minimization (10,000 steps) using the steepest descent algorithm was initially performed on all the simulation systems. This was followed by a 50 ps equilibration and 1 ns production runs in the isothermal-isobaric ensemble (NPT). […] Pressure was maintained at 1 atm using a MTTK barostat (relaxation time=5 ps). […]
# [4] = Free energy of hydration predicted by General Amber Force Field (GAFF), from literature; conditions: Table 5; error of GAFF hydration free energy vs experiment
# [5] = Free energy of hydration predicted by polarizable AMOEBA force field, from literature; conditions: Table 5; error of AMOEBA hydration free energy vs experiment
# [6] = Free energy of hydration by COSMO implicit solvent model (MolPro ver. 2012); conditions: absolute error vs Exp (hydration)
# In short: (§1)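 Hydration energies come from continuum solvent models. Those for COSMO were computed with MolPro. SMD and PCM results were received, and the SMD, PCM and COSMO-RS sets each cover just the molecules in common with the QM-parameterized force-field calculations.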
# [7] = Free energy of hydration by Solvation Model Dielectric (SMD) implicit solvent model; conditions: absolute error vs Exp (hydration)
# In short: as §1
# [8] = Free energy of hydration by Polarizable Continuum Model (PCM); conditions: absolute error vs Exp (hydration)
# In short: as §1
# [9] = Free energy of hydration by COSMO-RS
# In short: as §1
# [10] = experimental, cited from earlier work
# [11] = Table 3; free energy of solvation in cyclohexane, experimental; cited from earlier work
# [12] = experimental; cited from earlier work
# [13] = Table 5; free energy of hydration, GAFF prediction taken from literature; cited from earlier work
# [14] = Table 5; free energy of hydration, AMOEBA prediction taken from literature; cited from earlier work
# [15] = implicit solvent model, values received; cited from earlier work
# [16] = implicit solvent model, values received; cited from earlier work; remark: listed apart in the source
# [17] = Table 3; CHEX/H2O partition coefficient, experimental; cited from earlier work
smiles,measurement,setting,value
O [Water],water Arrow MD Error,"[1]; Table 3, absolute error of MD hydration free energy vs experiment",0.51 kcal/mol
same,water Arrow PIMD8 Error,"[1]; Table 3, absolute error of PIMD8 hydration free energy vs experiment",0.17 kcal/mol
same,Arrow error,"[1]; Table 5, error of Arrow PIMD8 hydration free energy vs experiment",0.17 kcal/mol
same,Arrow PIMD8 Error,[1]; absolute error vs Exp (hydration),0.17 kcal/mol
same,log D Arrow MD Error,[2],0.31
same,log D Arrow PIMD Error,[2],0.17
same,agreement of predicted bulk properties with experimental values,[3],≤ 3%
same,GAFF error,[4],0.26 kcal/mol
same,AMOEBA error,[5],0.44 kcal/mol
same,COSMO/Molpro Error,[6],2.29 kcal/mol
same,SMD Error,[7],1.70 kcal/mol
same,PCM Error,[8],1.60 kcal/mol
same,COSMO-RS error,[9],2.53 kcal/mol
same,water Exp (hydration),"[10]; Table 3, free energy of hydration",-6.30 kcal/mol
same,Exp (hydration),"[10]; Table 5, free energy of hydration",-6.30 kcal/mol
same,Hydration,[10],-6.30 kcal/mol
same,CHEX Exp (solvation),[11],-0.39 kcal/mol
same,Density,[12],0.997 g/cc
same,Hvap,[12],10.51 kcal/mol
same,self-solvation,[12],-6.30 kcal/mol
same,GAFF,[13],-6.04 kcal/mol
same,AMOEBA,[14],-5.86 kcal/mol
same,SMD free energy of hydration,[15],-8.00 kcal/mol
same,PCM free energy of hydration,[16],-4.70 kcal/mol
same,Exp (log D),[17],−4.33
